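Five concentrations, 48 hours, 96-well plates. Here, GI50 denotes the concentration required for 50% inhibition of growth. At the TGI there is no net growth.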
Key:
Assay in all cases: inhibition of tumour cell growth, NCI panel, 48 h
MALME-3M melanoma = system: MALME-3M melanoma
K-562 leukemia = system: K-562 leukemia
RPMI-8226 leukemia = system: RPMI-8226 leukemia
LOX IMVI melanoma = system: LOX IMVI melanoma
SF-268 CNS = system: SF-268 CNS
SNB-75 CNS = system: SNB-75 CNS
OVCAR-4 ovarian = system: OVCAR-4 ovarian
SK-MEL-28 melanoma = system: SK-MEL-28 melanoma
UO-31 renal = system: UO-31 renal
NCI-H226 lung = system: NCI-H226 lung

Compound | GI50 (MALME-3M melanoma) | TGI (MALME-3M melanoma) | GI50 (K-562 leukemia) | TGI (K-562 leukemia) | GI50 (RPMI-8226 leukemia) | TGI (RPMI-8226 leukemia) | GI50 (LOX IMVI melanoma) | TGI (LOX IMVI melanoma) | GI50 (SF-268 CNS) | TGI (SF-268 CNS) | GI50 (SNB-75 CNS) | TGI (SNB-75 CNS) | GI50 (OVCAR-4 ovarian) | TGI (OVCAR-4 ovarian) | GI50 (SK-MEL-28 melanoma) | TGI (SK-MEL-28 melanoma) | GI50 (UO-31 renal) | TGI (UO-31 renal) | GI50 (NCI-H226 lung) | TGI (NCI-H226 lung)
Cc1cc2cc3cc(C)c(N)cc3[n+](C)c2cc1N | 2.38 µM | 6.86 µM | 1.64 µM | 9.47 µM | 0.615 µM | 4.57 µM | 1.35 µM | 3.34 µM | 2.03 µM | 6.98 µM | 1.75 µM | 14.4 µM | 1.52 µM | 8.78 µM | 1.98 µM | 4.63 µM | 2.16 µM | 11.6 µM | 1.17 µM | 4.7 µM
O=C1CCC(N2Cc3c(C#CCCCNC(=O)c4cc5c(o4)C(=O)c4ccccc4C5=O)cccc3C2=O)C(=O)N1 (stereo not given) | 0.988 µM | 2.19 µM | 3.11 µM | 16.6 µM | 6.93 µM | 30.1 µM | 2.14 µM | 5.49 µM | 3.06 µM | 11.2 µM | 2.09 µM | 4.72 µM | 1.88 µM | 4.73 µM | 3.53 µM | 8.83 µM | 14 µM | 36.1 µM | 12.5 µM | 30.2 µM
CC(C(=O)O)/C(=C\c1ccc2c(c1)OCO2)C(=O)O (stereo not given) | – | > 100 µM | – | > 100 µM | – | > 100 µM | – | > 100 µM | – | > 100 µM | – | > 100 µM | – | > 100 µM | – | > 100 µM | – | > 100 µM | – | > 100 µM
Cc1c(-c2nnc(-c3ccc(F)cc3)o2)nnn1-c1ccnc2c(C(F)(F)F)cccc12 | 41.7 µM | > 100 µM | 19.8 µM | > 100 µM | 30.6 µM | > 100 µM | 44.5 µM | > 100 µM | 26.7 µM | > 100 µM | 19.5 µM | 61.2 µM | 21 µM | > 100 µM | 22.6 µM | 74.1 µM | 60.3 µM | > 100 µM | 67.2 µM | > 100 µM
CSC1=Nc2c(c(C)c(C)n2COC(CO)CO)C2=NC(=O)CC(C)N12 (stereo not given) | > 100 µM | > 100 µM | > 100 µM | > 100 µM | > 100 µM | > 100 µM | > 100 µM | > 100 µM | > 100 µM | > 100 µM | 30.7 µM | > 100 µM | > 100 µM | > 100 µM | > 100 µM | > 100 µM | > 100 µM | > 100 µM | > 100 µM | > 100 µM
COC(=O)C1=C(c2ccc3c(c2)OCO3)OC(c2ccc3c(c2)OCO3)C1 (stereo not given) | – | > 100 µM | – | > 100 µM | – | > 100 µM | – | > 100 µM | – | > 100 µM | – | > 100 µM | – | > 100 µM | – | > 100 µM | – | > 100 µM | – | > 100 µM
CCOC(=O)N[C@@H]1C2CC(=O)C(O2)[C@@H]1OC (stereo not given in full) | – | > 100 µM | – | > 100 µM | – | > 100 µM | – | > 100 µM | – | > 100 µM | – | > 100 µM | – | > 100 µM | – | > 100 µM | – | > 100 µM | – | > 100 µM
Brc1ccccc1C=NC12CC3CC(CC(C3)C1)C2 | – | > 100 µM | – | > 100 µM | – | > 100 µM | – | > 100 µM | – | > 100 µM | – | > 100 µM | – | > 100 µM | – | > 100 µM | – | > 100 µM | – | > 100 µM
CC(=O)OC1Oc2cc(C)c(C)cc2-c2oc(=O)c(-c3ccc(F)cc3)cc21 (stereo not given) | 5.04 µM | 31.7 µM | 3.01 µM | 12.3 µM | 2.52 µM | 9.04 µM | 5.61 µM | > 100 µM | 9.32 µM | > 100 µM | 4.34 µM | 80.8 µM | 11.3 µM | 63.9 µM | 6.89 µM | 45.7 µM | 4.92 µM | > 100 µM | 12.9 µM | > 100 µM
COc1ccc(-c2cc(-c3cc(C)ccc3O)[nH]c(=O)n2)cc1 | – | > 100 µM | – | > 100 µM | – | > 100 µM | – | > 100 µM | – | > 100 µM | – | 66.8 µM | – | > 100 µM | – | > 100 µM | – | > 100 µM | – | > 100 µM
Clc1ccc(C2=NN[C@H](c3cn(-c4ccccc4)nc3-c3ccccc3)C2)cc1 | 5.66 µM | > 100 µM | 4.8 µM | > 100 µM | 14.1 µM | > 100 µM | 3.99 µM | 15.1 µM | 5.71 µM | 21.2 µM | 2.15 µM | 5.29 µM | 4.87 µM | 34.3 µM | 2.65 µM | 6.69 µM | 12.8 µM | > 100 µM | 5.96 µM | 25.4 µM
S=C(c1ccc2c(c1)OCO2)N1CCN(c2cccc(Cl)c2)CC1 | 0.478 µM | > 100 µM | 0.318 µM | > 41.8 µM | 0.598 µM | > 100 µM | 1.14 µM | > 100 µM | 4.65 µM | > 100 µM | 0.572 µM | > 27.4 µM | 7.45 µM | > 100 µM | 1.02 µM | > 100 µM | 4.3 µM | > 72.5 µM | 14 µM | > 100 µM
CCN(CC)CCCCNc1ncc2cc(-c3cc(OC)cc(OC)c3)c(NC(=O)NC(C)(C)C)nc2n1 | 1.96 µM | 4.17 µM | 2.95 µM | 9.37 µM | 4.92 µM | 27.9 µM | 5.34 µM | 18.8 µM | 5.47 µM | 21.1 µM | 0.372 µM | 13.1 µM | 1.84 µM | 25.5 µM | 4.67 µM | 12.4 µM | 1.37 µM | 15.5 µM | 2.57 µM | 24.8 µM
C/C(=C\CCc1ccsc1)CC/C=C(\C)CCCN1CCC(CO)CC1 | 1.71 µM | 3.37 µM | 1.28 µM | 3.41 µM | 1.93 µM | 4.15 µM | 1.77 µM | 3.27 µM | 5.06 µM | 19.4 µM | 1.69 µM | 4.56 µM | 2.3 µM | 9.5 µM | 1.69 µM | 3.38 µM | 2.83 µM | 16 µM | 3.94 µM | 21 µM
O=C(CN1C(=O)S/C(=C\C(Cl)=C\c2ccccc2)C1=O)NCCc1ccc(O)cc1 | 2.03 µM | 5.96 µM | 2.28 µM | > 100 µM | 1.74 µM | 6.96 µM | 1.42 µM | 2.85 µM | 2.28 µM | 6.63 µM | 1.05 µM | 6.64 µM | 2.61 µM | 11.9 µM | 1.73 µM | 3.44 µM | 1.64 µM | 3.31 µM | 1.99 µM | 4.4 µM
COc1cccc(Cn2c(-c3nonc3NC(C)=O)nc3ccccc32)c1 | 3.31 µM | 43.8 µM | 4.02 µM | > 100 µM | 5.34 µM | > 100 µM | 6.1 µM | > 100 µM | 7.82 µM | > 100 µM | 0.144 µM | 3.85 µM | 15.6 µM | > 100 µM | 6.17 µM | > 100 µM | 3.72 µM | > 100 µM | 5.46 µM | > 100 µM
CNC(=O)NC(CCCCNC(=O)OCc1ccccc1)C(=O)OCc1ccccc1 (stereo not given) | – | 64.9 µM | – | 89.4 µM | – | 67.4 µM | – | > 78.2 µM | – | > 100 µM | – | 43.9 µM | – | > 100 µM | – | 41.5 µM | – | 98.3 µM | – | > 88.6 µM
COC(=O)C1=C(CS(=O)c2ccc([N+](=O)[O-])cc2[N+](=O)[O-])ON(C)C1c1ccccc1 (stereo not given) | – | > 100 µM | – | 34.5 µM | – | 46 µM | – | 35 µM | – | > 100 µM | – | 77.6 µM | – | > 100 µM | – | > 100 µM | – | > 100 µM | – | > 100 µM

— PubChem BioAssay (NCI)
